Experimental data reported in patent EP0164699A2, “1,2-Beta-methylene-4-androstene and 4,6-androstadiene-3,17-dione” (SCHERING AKTIENGESELLSCHAFT, priority 1984, dated 1985).

Tested on: Aromatase
Assay: Aromatase inhibition: reduction of PMSG-stimulated estradiol secretion in rats (serum estradiol by radioimmunoassay)
Type: in vivo, Ratten
Details: serum of 20-day-old female rats pretreated 7 times with 100 I.U. PMSG s.c.; test substance injected 1 h before and 8 h after last PMSG; killed 24 h after last PMSG; comparison with substance A
From the text: Die durch PMSG (Pregnant Mare's Serum Gonadotropin) vermehrte Sekretion von Östradiol kann durch Applikation von Aromatasehemmern vermindert werden.
Versuch und Auswertung wurden wie folgt durchgeführt: • 20 Tage alte weibliche Ratten wurden alle 2 Tage insgesamt 7 mal mit 100 I.U. PMSG subcutan vorbehandelt. Eine Stunde vor und 8 Stunden nach der letzten PMSG-Applikation (d12) erhielten die Tiere die Testsubstanz durch Injektion. 24 Stunden nach der letzten PMSG-Applikation wurden die Tiere getötet. Im Serum wurde dann Östradiol radioimmunologisch bestimmt. In der folgenden Tabelle wird die Östradiolkonzentration in nMol/1 und die Standardabweichung angegeben. [formula]

C[C@]12CC[C@H]3[C@@H](CCC4=CC(=O)[C@H]5CC5[C@@]43C)[C@@H]1CCC2=O (some centres unmarked) [B, 1,2ß-Methylen-4-androsten-3,17-dion]
Östradiolkonzentration: einen stärkeren Abfall der Östradiolkonzentration bewirken als die bekannte Substanz A

C[C@]12CC[C@H]3[C@@H](C=CC4=CC(=O)[C@H]5CC5[C@@]43C)[C@@H]1CCC2=O (some centres unmarked) [C, 1,2ß-Methylen-androsta-4,6-dien-3,17-dion]
Östradiolkonzentration: einen stärkeren Abfall der Östradiolkonzentration bewirken als die bekannte Substanz A
